Experiments:
hMC4R [1] = target: T1, hMC4R (Homo sapiens, UniProt P32245); assay: Plasmon waveguide resonance (PWR) spectrum of hMC4R membranes with agonists
T1 construct: expressed in transfected cells; host or cells: HEK293
Description: PWR uses polarized light generated from a CW He—Ne laser (λ=632.8 nm or λ=543.5 nm), which passes through a glass prism under total internal reflection conditions. A thin metal film (Ag), which is deposited on the external surface of the prism, is overcoated with another thin layer of SiO2 as dielectric media. When there is an object attached to the dielectric layer of SiO2, and polarized laser forms a specific incident angle with the outer surface layer, the resonant excitation of collective electronic oscillations (plasmons) happens and generates an evanescent electromagnetic field localized at the dielectric film, which gives the absorption spectrum at that specific angle. This can be used to probe the optical properties of molecules immobilized on the outer surface of the prism. Resonance is achieved either by varying the laser light wavelength at a fixed angle or by varying the angle at a fixed laser wavelength(we used the latter one in this research). Any changes of the immobilized yield distinct incident angle that evanescence happens in the dielectric layer. Due to the ability that laser light can be polarized to either parallel (p) or perpendicular (s) to the incident plane, characterization of the molecular organization of anisotropic systems can be fulfilled, such as biomembranes containing integral proteins. Under the experimental conditions described herein, the optical parameters obtained with the p-polarization refer to the perpendicular direction, and those obtained with s-polarization refer to the parallel direction, relative to the bilayer membrane surface.
Resonance spectra in this study were obtained using a PWR instrument from Biopeptek Pharmaceuticals LLC. […] Recombinant HEK293 cells expressing the hMC4R were grown to confluency. The confluent cell monolayers were then washed with Ca^2+ and Mg^2+-deficient phosphate-buffered saline and were harvested in the same buffer containing 0.02% ethylenediaminetetraacetic acid (EDTA). After centrifugation at 1500 g for 10 minutes, the cells were homogenized in an ice-cold 10 mM Tris-HCl buffer and 1 mM EDTA (pH 7.4). A crude membrane fraction was collected by centrifugation at 40,000 g for 20 minutes at −4° C. and was stored at −80° C. until use. Before the PWR experiment, the membrane fraction was resuspended in a 20 mM Tris-HCl buffer (pH 7.4) by mild homogenization. Protein concentration was determined by using a Bradford assay.
Under the experimental conditions employed herein, the oscillation of light with p-polarization reflects the dimension of objects perpendicular to the membrane, and those obtained under the s-polarization vector refer to the dimension in parallel with the bilayer membrane surface.

hMC4R [2] = target: T1, hMC4R; assay: Competitive receptor binding assay, whole HEK293 cells, 125I-NDP-α-MSH; settings: for inhibition at 10 µM: 40 min, hM4CR, percentage of [125I]NDP-α-MSH displacement at 10 μM, read-out: BE%
Description: (§1) Competition binding experiments were performed on whole cells. The transfected HEK293 cell line with hMC4Rs were seeded on 96 well plates, 48 hours before the assay, 100,000 cells/well. For the assay, the medium was removed and cells were washed twice with a freshly prepared binding buffer containing 100% minimum essential medium with Earle's salt (MEM, GIBCO), 25 mM HEPES (pH 7.4), 0.2% bovine serum albumin, 1 mM 1,10-phenanthroline, 0.5 mg/L leupeptin, and 200 mg/L bacitracin. […] The medium was subsequently removed and each well was washed twice with the assay buffer. The cells are lysed by the addition of 250 μL of 0.1 NaOH and 250 μL of 1% Triton X-100. […] Data were analyzed using Graphpad Prism 6.0 (Graphpad Software, San Diego, CA).
IC50 and EC50 values represent the mean of duplicate experiments performed in triplicate. IC50 and EC50 estimates and their associated standard errors were determined by fitting the data using nonlinear least-squares analysis, with the help of Graphpad Prism 6.0 (Graphpad Software, San Diego, CA). […]

hMC4R [3] = target: T1, hMC4R; assay: Adenylate cyclase (cAMP) assay in transfected HEK293 cells; type: cell-based; settings: for Emax at 10 µM: HEK293, 0.05 h, hM4CR, percentage of cAMP produced at 10 μM in relation to MT-II, read-out: Act%
Description: The cells were seeded on 96 well plates 48 hours before the assay, (100,000 cells/well). For the assay, the medium was removed and cells were rinsed with 1 mL of MEM buffer (GIBCO) or with Earle's balanced salt solution (EBSS, GIBCO). An aliquot (0.4 mL) of Earle's balanced salt solution was placed in each well along with isobutylmethylxanthine (IBMX; 5 μL; 0.5 mM) for 1 minute at 37° C. Varying concentrations of melanotropins (0.1 mL) were added and the cells incubated for 3 minutes at 37° C. The reaction was stopped by aspirating the buffer and adding ice-cold Tris/EDTA buffer to each well (0.15 mL). The 96 well plates were covered and placed on ice. After dislodging the cells, the plates were placed in a boiling water bath for 15 minutes. The cell lysate was then centrifuged for 10 minutes (4000 rpm), and 50 μL of the supernatant was aliquoted into perkinElmer glass fiber filter plate. cAMP content was measured by competitive binding assay in addition to 50 μL H^3 cAMP and 100 μL PKA. Then the system was placed on ice for 2 hours and then vacuum and filtered. 100 μL of the OptiPhase Supermix scintillation fluid was added to the plate. The plates stayed for 8 hours and then read by MicroBeta radiation plate reader. IC50 and EC50 values represent the mean of duplicate experiments performed in triplicate. […] NA indicates 0% cAMP accumulation observed at 10 μM. The peptides were tested over a range of concentrations from 10^-10 to 10^-5 M.

hMC5R [4] = target: T2, hMC5R (Homo sapiens, UniProt P33032); assay: Competitive receptor binding assay, whole HEK293 cells, 125I-NDP-α-MSH; settings: 40 min; hM5CR; percentage of NDP-α-MSH displacement at 10 μM; read-out: BE %
T2 construct: expressed in transfected cells; host or cells: HEK293
T2 sequence (P33032 whole entry): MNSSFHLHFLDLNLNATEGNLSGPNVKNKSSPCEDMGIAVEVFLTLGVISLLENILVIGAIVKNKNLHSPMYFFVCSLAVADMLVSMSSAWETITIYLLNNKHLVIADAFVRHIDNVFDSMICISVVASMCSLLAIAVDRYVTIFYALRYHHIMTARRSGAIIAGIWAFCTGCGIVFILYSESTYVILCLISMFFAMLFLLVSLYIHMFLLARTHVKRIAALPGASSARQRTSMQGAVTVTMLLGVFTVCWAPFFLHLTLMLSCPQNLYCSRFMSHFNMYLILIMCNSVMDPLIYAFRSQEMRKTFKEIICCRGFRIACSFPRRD
Description: [The procedure below names another target; the source lists this target under the same test.] as §1
(§2) IC50 and EC50 values represent the mean of duplicate experiments performed in triplicate. IC50 and EC50 estimates and their associated standard errors were determined by fitting the data using nonlinear least-squares analysis, with the help of Graphpad Prism 6.0 (Graphpad Software, San Diego, CA).
(§3) NA indicates 0% cAMP accumulation observed at 10 μM. The peptides were tested over a range of concentrations from 10^-10 to 10^-5 M.

hMC3R [5] = target: T3, hMC3R (Homo sapiens, UniProt P41968); assay: Adenylate cyclase (cAMP) assay in transfected HEK293 cells; type: cell-based; settings: HEK293, 0.05 h; hM3CR; cAMP at 10 μM in relation to MT-II; read-out: Act %
T3 construct: expressed in transfected cells; host or cells: HEK293
T3 sequence (P41968 whole entry): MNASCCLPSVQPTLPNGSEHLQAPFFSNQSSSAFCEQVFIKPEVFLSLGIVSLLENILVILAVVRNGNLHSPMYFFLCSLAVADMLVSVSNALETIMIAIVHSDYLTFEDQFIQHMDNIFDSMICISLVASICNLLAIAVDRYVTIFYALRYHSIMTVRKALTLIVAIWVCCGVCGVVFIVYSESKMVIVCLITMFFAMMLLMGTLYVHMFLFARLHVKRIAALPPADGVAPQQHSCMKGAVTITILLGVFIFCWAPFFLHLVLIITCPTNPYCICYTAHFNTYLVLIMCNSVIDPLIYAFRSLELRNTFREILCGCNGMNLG
Description: (§4) HEK293 cells transfected with human melanocortin receptors were grown to confluence in MEM medium (GIBCO) containing 10% fetal bovine serum, 100 units/mL penicillin and streptomycin, and 1 mM sodium pyruvate. The cells were seeded on 96 well plates 48 hours before the assay, (100,000 cells/well). For the assay, the medium was removed and cells were rinsed with 1 mL of MEM buffer (GIBCO) or with Earle's balanced salt solution (EBSS, GIBCO). An aliquot (0.4 mL) of Earle's balanced salt solution was placed in each well along with isobutylmethylxanthine (IBMX; 5 μL; 0.5 mM) for 1 minute at 37° C. Varying concentrations of melanotropins (0.1 mL) were added and the cells incubated for 3 minutes at 37° C. The reaction was stopped by aspirating the buffer and adding ice-cold Tris/EDTA buffer to each well (0.15 mL). The 96 well plates were covered and placed on ice. After dislodging the cells, the plates were placed in a boiling water bath for 15 minutes. The cell lysate was then centrifuged for 10 minutes (4000 rpm), and 50 μL of the supernatant was aliquoted into perkinElmer glass fiber filter plate. cAMP content was measured by competitive binding assay in addition to 50 μL H^3 cAMP and 100 μL PKA. Then the system was placed on ice for 2 hours and then vacuum and filtered. 100 μL of the OptiPhase Supermix scintillation fluid was added to the plate. The plates stayed for 8 hours and then read by MicroBeta radiation plate reader.
as §2, §3

hMC1R [6] = target: T4, hMC1R (Homo sapiens, UniProt Q01726); assay: as above; type: cell-based; settings: HEK293, 0.05 h; hM1CR; cAMP at 10 μM in relation to MT-II; read-out: Act %
T4 construct: expressed in transfected cells; host or cells: HEK293
T4 sequence (Q01726 whole entry): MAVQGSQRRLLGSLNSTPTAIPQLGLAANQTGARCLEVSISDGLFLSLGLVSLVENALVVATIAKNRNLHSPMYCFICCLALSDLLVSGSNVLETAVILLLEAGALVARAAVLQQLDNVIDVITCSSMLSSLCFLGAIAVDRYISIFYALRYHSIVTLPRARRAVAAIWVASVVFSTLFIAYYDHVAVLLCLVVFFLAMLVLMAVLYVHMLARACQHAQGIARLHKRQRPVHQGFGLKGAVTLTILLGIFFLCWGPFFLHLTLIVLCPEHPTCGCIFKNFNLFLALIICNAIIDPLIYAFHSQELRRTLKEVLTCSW
Description: as §4, §2, §3

hMC5R [7] = target: T2, hMC5R; assay: as above; type: cell-based; settings: HEK293, 0.05 h; hM5CR; cAMP at 10 μM in relation to MT-II; read-out: Act %
Description: as §4, §2, §3

hMC3R [8] = target: T3, hMC3R; assay: Competitive receptor binding assay, whole HEK293 cells, 125I-NDP-α-MSH; settings: 40 min; hM3CR; percentage of NDP-α-MSH displacement at 10 μM; read-out: BE %
Description: [The procedure below names another target; the source lists this target under the same test.] (§5) Competition binding experiments were performed on whole cells. The transfected HEK293 cell line with hMC4Rs were seeded on 96 well plates, 48 hours before the assay, 100,000 cells/well. For the assay, the medium was removed and cells were washed twice with a freshly prepared binding buffer containing 100% minimum essential medium with Earle's salt (MEM, GIBCO), 25 mM HEPES (pH 7.4), 0.2% bovine serum albumin, 1 mM 1,10-phenanthroline, 0.5 mg/L leupeptin, and 200 mg/L bacitracin. […] The medium was subsequently removed and each well was washed twice with the assay buffer. The cells are lysed by the addition of 250 μL of 0.1 NaOH and 250 μL of 1% Triton X-100. The lysed cell was transferred to the 12×75 mm glass tubes and the radioactivity was measured by Wallac 1470 WIZARD Gamma Counter. Data were analyzed using Graphpad Prism 6.0 (Graphpad Software, San Diego, CA).
as §2, §3

hMC1R [9] = target: T4, hMC1R; assay: as above; settings: for inhibition at 10 µM: 40 min, hM1CR, percentage of NDP-α-MSH displacement at 10 μM, read-out: BE %; for hMC1R binding affinity (in words): compared with the other analogues
Description: [The procedure below names another target; the source lists this target under the same test.] as §5, §2, §3

T1 sequence (P32245 whole entry): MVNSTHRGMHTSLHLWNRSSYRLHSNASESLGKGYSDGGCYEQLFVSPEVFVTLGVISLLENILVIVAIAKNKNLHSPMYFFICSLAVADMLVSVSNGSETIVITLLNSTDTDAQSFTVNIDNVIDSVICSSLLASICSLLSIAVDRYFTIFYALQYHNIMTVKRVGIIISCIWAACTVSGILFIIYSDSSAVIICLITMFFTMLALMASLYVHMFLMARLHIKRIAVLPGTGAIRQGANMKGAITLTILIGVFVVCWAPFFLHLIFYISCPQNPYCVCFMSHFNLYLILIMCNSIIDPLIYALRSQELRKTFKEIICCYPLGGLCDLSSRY

| inhibition at 10 µM (hMC4R [2]) | Emax at 10 µM (hMC4R [3]) | inhibition at 10 µM (hMC5R [4]) | Emax at 10 µM (hMC3R [5]) | Emax at 10 µM (hMC1R [6]) | Emax at 10 µM (hMC5R [7]) | inhibition at 10 µM (hMC3R [8]) | inhibition at 10 µM (hMC1R [9]) | hMC1R binding affinity (in words) (hMC1R [9]) | times higher in binding affinity to hMC4R than hMC1R (hMC4R [2]; hMC4R vs hMC1R) | times higher in binding affinity to hMC4R than hMC3R (hMC4R [2]; hMC4R vs hMC3R) | times higher in binding affinity to hMC4R than hMC5R (hMC4R [2]; hMC4R vs hMC5R) | PWR peak location under p-polarization (hMC4R [1]; p-polarization, hMC4R sole 26.44) | PWR shift under s-polarization (in words) (hMC4R [1]; s-polarization) | selectivity for hMC4R (in words) (hMC4R [3]; comparing the EC50 of a compound for each receptor) | Compound | PWR left shift under p-polarization relative to hMC4R sole (hMC4R [1]; p-polarization, left shifted) | PWR absorbance location under s-polarization (hMC4R [1]; s-polarization, sole MC4R 33.29) |
| --- | --- | --- | --- | --- | --- | --- | --- | --- | --- | --- | --- | --- | --- | --- | --- | --- | --- |
| – | – | – | – | – | – | – | – | – | – | – | – | – | – | – | CC(=O)N[C@@H](CCCNC(=N)N)C(=O)N[C@H]1CSSC[C@@H](C(N)=O)NC(=O)[C@H](Cc2c[nH]c3ccccc23)NC(=O)[C@H](CCCNC(=N)N)NC(=O)[C@@H](Cc2ccccc2)NC(=O)[C@H](Cc2c[nH]cn2)NC(=O)[C@@H](C)NC1=O [RM493, reference compound] | 0.25 degrees | 32.97 |
| 100% | 67% | 0% | 89% | 120% | 90% | 24% | 100% | – | – | – | – | – | – | – | CC(=O)N[C@@H](CCCNC(=N)N)C(=O)N[C@H]1CC(=O)NCCCC[C@@H](C(N)=O)NC(=O)[C@H](Cc2c[nH]c3ccccc23)NC(=O)C[C@H](CCCNC(=N)N)NC(=O)[C@@H](Cc2ccccc2)NC(=O)[C@@H]2CCCCN2C1=O [compound 2, Ac-Arg-cyclo[Asp-Pip-D-Phe-βArg-Trp-Lys]-NH2] | – | – |
| 100% | 84% | 46% | 87% | 82% | 82% | 100% | 30% | lower binding affinities than the others | – | – | – | – | – | – | CC(=O)N[C@@H](CCCNC(=N)N)C(=O)N[C@H]1CC(=O)NCCCC[C@@H](C(N)=O)NC(=O)C[C@H](Cc2c[nH]c3ccccc23)NC(=O)C[C@H](CCCNC(=N)N)NC(=O)[C@@H](Cc2ccccc2)NC(=O)[C@@H]2CCCCN2C1=O [compound 3, Ac-Arg-cyclo[Asp-Pip-D-Phe-βArg-BTrp-Lys]-NH2] | – | – |
| 9% | 46% | 100% | 76% | 90% | 72% | 100% | 100% | – | – | – | – | – | – | – | CC(=O)N[C@@H](CCCNC(=N)N)C(=O)N[C@H]1CC(=O)NCCCC[C@@H](C(N)=O)NC(=O)C[C@H](Cc2c[nH]c3ccccc23)NC(=O)[C@H](CCCNC(=N)N)NC(=O)[C@@H](Cc2ccc(F)cc2)NC(=O)[C@@H]2CCCCN2C1=O [compound 4, Ac-Arg-cyclo[Asp-Pip-D-Phe(4-F)-Arg-BTrp-Lys]-NH2] | – | – |
| 59% | 120% | 90% | 49% | 61% | 51% | 39% | 0% | lower binding affinities than the others | – | – | – | – | – | – | CC(=O)N[C@@H](CCCNC(=N)N)C(=O)N[C@H]1CC(=O)NCCCC[C@@H](C(N)=O)NC(=O)C[C@H](Cc2c[nH]c3ccccc23)NC(=O)C[C@H](CCCNC(=N)N)NC(=O)[C@@H](Cc2ccc(F)cc2)NC(=O)[C@@H]2CCCCN2C1=O [compound 6, Ac-Arg-cyclo[Asp-Pip-D-Phe(4-F)-βArg-BTrp-Lys]-NH2] | – | – |
| 100% | 57% | 0% | 24% | 67% | 21% | 70% | 100% | – | – | – | – | – | – | – | CC(=O)N[C@@H](CCCNC(=N)N)C(=O)N[C@H]1CC(=O)NCCCC[C@@H](C(N)=O)NC(=O)C[C@H](Cc2c[nH]c3ccccc23)NC(=O)[C@H](CCCNC(=N)N)NC(=O)[C@@H](Cc2ccc(Cl)cc2)NC(=O)[C@@H]2CCCCN2C1=O [compound 7, Ac-Arg-cyclo[Asp-Pip-D-Phe(4-Cl)-Arg-BTrp-Lys]-NH2] | – | – |
| 100% | 66% | 0% | 46% | 89% | 38% | 100% | 100% | – | – | – | – | – | – | – | CC(=O)N[C@@H](CCCNC(=N)N)C(=O)N[C@H]1CC(=O)NCCCC[C@@H](C(N)=O)NC(=O)[C@H](Cc2c[nH]c3ccccc23)NC(=O)C[C@H](CCCNC(=N)N)NC(=O)[C@@H](Cc2ccc(Cl)cc2)NC(=O)[C@@H]2CCCCN2C1=O [compound 8, Ac-Arg-cyclo[Asp-Pip-D-Phe(4-Cl)-βArg-Trp-Lys]-NH2] | – | – |
| 100% | 87% | 75% | 63% | 90% | 76% | 10% | 100% | lower binding affinities than the others | about 68 times | over 1000 times | over 1000 times | 26.95 | no significant change | selective agonist of hMC4R | CC(=O)N[C@@H](CCCNC(=N)N)C(=O)N[C@H]1CC(=O)NCCCC[C@@H](C(N)=O)NC(=O)C[C@H](Cc2c[nH]c3ccccc23)NC(=O)C[C@H](CCCNC(=N)N)NC(=O)[C@@H](Cc2ccc(Cl)cc2)NC(=O)[C@@H]2CCCCN2C1=O [compound 9, Ac-Arg-cyclo[Asp-Pip-D-Phe(4-Cl)-βArg-BTrp-Lys]-NH2] | – | – |
